Measurements reported in patent US20230027066A1 (Urovant Sciences GmbH, priority 2019, published 2023).

Assays:
[1] = drug interaction study of vibegron and rifampin, pharmacokinetics; format: in vivo, human
[2] = test system: males and females with OAB; experiment: Phase 3 study of vibegron 50 mg and 100 mg, 12 weeks, efficacy; format: in vivo, human
[3] = thorough QT study, single doses of 200 and 400 mg, healthy volunteers; format: in vivo, human
[4] = QTc study comparison mirabegron and vibegron, BP and HR in healthy subjects; format: in vivo, human; settings: for HR change at Cmax, placebo adjusted / SBP change 24-hour average, placebo adjusted / SBP change at Cmax, placebo adjusted: healthy subjects
[5] = 40-week extension study (52 weeks), adverse events
Excerpt: Approximately 500 men and women with overactive bladder who completed 12 weeks in the parent study were permitted to enroll, at approximately 110 study sites in the U.S.
Secondary endpoints were evaluation of CFB at Week 52 in average number of micturitions, Urge Urinary Incontinence (UUI) episodes, urgency episodes, and total urinary incontinence episodes. All CFB calculations used the parent study Baseline value.

CYP2D6 = CYP2D6 (Homo sapiens, UniProt P10635); experiment: drug interaction study of vibegron and tolterodine (sensitive CYP2D6 substrate); settings: vibegron 100 mg QD at steady state
[6] = vibegron 75 mg single dose + rifampin 600 mg QD
[7] = vibegron 75 mg single dose alone

CYP2D6, sequence (P10635 whole entry): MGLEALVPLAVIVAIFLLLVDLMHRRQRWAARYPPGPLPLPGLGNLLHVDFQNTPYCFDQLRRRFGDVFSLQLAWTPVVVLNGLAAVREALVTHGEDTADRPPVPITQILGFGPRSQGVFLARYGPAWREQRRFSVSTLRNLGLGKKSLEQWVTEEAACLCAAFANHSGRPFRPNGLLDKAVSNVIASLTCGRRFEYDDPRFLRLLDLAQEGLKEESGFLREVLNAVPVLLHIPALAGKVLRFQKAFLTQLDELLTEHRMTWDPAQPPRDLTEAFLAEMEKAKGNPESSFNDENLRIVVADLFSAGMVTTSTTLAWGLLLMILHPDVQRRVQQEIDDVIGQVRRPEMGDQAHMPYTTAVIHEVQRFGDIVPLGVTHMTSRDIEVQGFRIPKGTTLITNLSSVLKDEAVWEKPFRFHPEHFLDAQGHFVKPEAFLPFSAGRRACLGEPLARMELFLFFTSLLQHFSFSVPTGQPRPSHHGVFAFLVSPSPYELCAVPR

O=C(Nc1ccc(C[C@@H]2CC[C@H]([C@H](O)c3ccccc3)N2)cc1)[C@@H]1CCc2nccc(=O)n21 [Vibegron, (6S)-N-[4-[[(2S,5R)−5-[(R)-hydroxy(phenyl)methyl]pyrrolidin−2-yl]methyl]phenyl]−4-oxo−7,8-dihydro−6H-pyrrolo[1,2-a]pyrimidine−6-carboxamide]
AUC(0-t) ([1]; both sexes, human, in vivo, 75 mg, read-out: AUC0-t, geometric mean (% CV)): 1160 ng·h/mL
Cmax ([1]; both sexes, human, in vivo, 75 mg, read-out: Cmax, geometric mean (% CV)): 82.3 ng/mL
AUC(0-inf) ([1]; both sexes, human, in vivo, oral, 75 mg, read-out: AUC0-∞, geometric mean (% CV)): 1310 ng·h/mL
half-life ([1]; both sexes, human, in vivo, oral, 75 mg, read-out: t1/2, geometric mean (% CV) (converted)): 84 h
CL/F, geometric mean (% CV) [1, 6]: 57.3 (30.1) L/hr
V/F, geometric mean (% CV) [1, 6]: 6140 (47.0) L
CL/F, geometric mean (% CV) [1, 7]: 57.2 (39.7) L/hr
V/F, geometric mean (% CV) [1, 7]: 6930 (48.6) L
Micturitions: LS mean placebo adjusted change from baseline (95% CI) at Week 12 ([2]; vibegron 50 mg once daily): −0.86 (−1.12, −0.60)
Total incontinence episodes: LS mean placebo adjusted change from baseline (95% CI) at Week 12 ([2]; vibegron 50 mg once daily): −0.30 (−0.49, −0.12)
Urge urinary incontinence episodes: LS mean placebo adjusted change from baseline (95% CI) at Week 12 ([2]; vibegron 50 mg once daily): −0.27 (−0.44, −0.10)
Urgency episodes: LS mean placebo adjusted change from baseline (95% CI) at Week 12 ([2]; vibegron 50 mg once daily): −0.51 (−0.76, −0.25)
Micturitions: LS mean placebo adjusted change from baseline (95% CI) at Week 12 ([2]; vibegron 100 mg once daily): −0.81 (−1.07, −0.55)
Total incontinence episodes: LS mean placebo adjusted change from baseline (95% CI) at Week 12 ([2]; vibegron 100 mg once daily): −0.43 (−0.61, −0.24)
Urge urinary incontinence episodes: LS mean placebo adjusted change from baseline (95% CI) at Week 12 ([2]; vibegron 100 mg once daily): −0.39 (−0.55, −0.22)
Urgency episodes: LS mean placebo adjusted change from baseline (95% CI) at Week 12 ([2]; vibegron 100 mg once daily): −0.67 (−0.93, −0.42)
effect on QTc or blood pressure in thorough QT study ([3]; human, in vivo): no clinically meaningful effect on QTc or blood pressure
AUC, mean ± SD ([3]; vibegron 200 mg single dose): 2430 ± 974 ng·h/mL
Maximum mean placebo corrected change from baseline RR interval ([3]; vibegron 200 mg single dose): -84.36 ms
Maximum mean placebo corrected change from baseline diastolic BP ([3]; vibegron 200 mg single dose): 2.42 mmHg
Maximum mean placebo corrected change from baseline systolic BP ([3]; vibegron 200 mg single dose): 2.20 mmHg
AUC, mean ± SD ([3]; vibegron 400 mg single dose): 6800 ± 2300 ng·h/mL
Maximum mean placebo corrected change from baseline RR interval ([3]; vibegron 400 mg single dose): -162.45 ms
Maximum mean placebo corrected change from baseline diastolic BP ([3]; vibegron 400 mg single dose): 3.99 mmHg
Maximum mean placebo corrected change from baseline systolic BP ([3]; vibegron 400 mg single dose): 3.97 mmHg
SBP change 24-hour average, 75 mg estimate, placebo adjusted ([4]; 75 mg estimate from QT study): 24-hour average: 0.1 mmHg
SBP change at Cmax, 75 mg estimate, placebo adjusted ([4]; 75 mg estimate from QT study): At Cmax: 0.4 mmHg
HR change at Cmax, placebo adjusted ([4]; 200 mg single-dose): 4.1 BPM
SBP change 24-hour average, placebo adjusted ([4]; 200 mg single-dose): +0.7 mmHg
SBP change at Cmax, placebo adjusted ([4]; 200 mg single-dose): +2.2 mmHg
HR change at Cmax, placebo adjusted ([4]; 400 mg single-dose): 11.2 BPM
SBP change 24-hour average, placebo adjusted ([4]; 400 mg single-dose): 1.3 mmHg
SBP change at Cmax, placebo adjusted ([4]; 400 mg single-dose): +3.97 mmHg
Discontinued the study: Death ([5]; 40-Weeks arm): 1 (1.1) n (%)
Discontinued the study: Death ([5]; 52-Weeks arm): 0 n (%)
SAEs resulting in death (not considered related by Investigator or Sponsor) ([5]; Overall groups): 1 (0.4) n (%)
Discontinued the study: Death ([5]; Overall groups, Randomized Set Extension): 1 (0.4) n (%)
Discontinued the study: Adverse Event ([5]; both, human, in vivo): 4 (1.5) n (%)
Patients with at least one treatment-emergent adverse event ([5]; both, human, in vivo): 171 (62.6) n (%)
Patients with at least one treatment-emergent serious AE ([5]; both, human, in vivo): 9 (3.3) n (%)
SAEs considered treatment-related by the investigator ([5]; both, human, in vivo): 1 (0.4) n (%)
SAEs: Hospitalization ([5]; both, human, in vivo): 7 (2.6) n (%)
SAEs: Other serious criteria ([5]; both, human, in vivo): 1 (0.4) n (%)
Discontinued the study: Adverse Event ([5]; both, human, in vivo, 40 weeks): 1 (1.1) n (%)
AE leading to discontinuation of study drug: Acute prerenal failure ([5]; both, human, in vivo, 52 weeks): 0 n (%)
AE leading to discontinuation of study drug: Amnesia ([5]; both, human, in vivo, 52 weeks): 1 (0.4) n (%)
AE leading to discontinuation of study drug: Any ([5]; both, human, in vivo, 52 weeks): 4 (1.5) n (%)
AE leading to discontinuation of study drug: Aortic stenosis ([5]; both, human, in vivo, 52 weeks): 0 n (%)
AE leading to discontinuation of study drug: Atrial fibrillation ([5]; both, human, in vivo, 52 weeks): 0 n (%)
AE leading to discontinuation of study drug: Blood creatinine increased ([5]; both, human, in vivo, 52 weeks): 1 (0.4) n (%)
AE leading to discontinuation of study drug: Blood urea increased ([5]; both, human, in vivo, 52 weeks): 1 (0.4) n (%)
AE leading to discontinuation of study drug: Cardiac failure ([5]; both, human, in vivo, 52 weeks): 0 n (%)
AE leading to discontinuation of study drug: Cardiomyopathy ([5]; both, human, in vivo, 52 weeks): 0 n (%)
AE leading to discontinuation of study drug: Chronic kidney disease ([5]; both, human, in vivo, 52 weeks): 0 n (%)
AE leading to discontinuation of study drug: Constipation ([5]; both, human, in vivo, 52 weeks): 1 (0.4) n (%)
AE leading to discontinuation of study drug: Diarrhea ([5]; both, human, in vivo, 52 weeks): 1 (0.4) n (%)
AE leading to discontinuation of study drug: Dizziness ([5]; both, human, in vivo, 52 weeks): 0 n (%)
AE leading to discontinuation of study drug: Dry eye ([5]; both, human, in vivo, 52 weeks): 0 n (%)
AE leading to discontinuation of study drug: Dyspnoea ([5]; both, human, in vivo, 52 weeks): 0 n (%)
AE leading to discontinuation of study drug: Haematuria ([5]; both, human, in vivo, 52 weeks): 0 n (%)
AE leading to discontinuation of study drug: Headache ([5]; both, human, in vivo, 52 weeks): 0 n (%)
AE leading to discontinuation of study drug: Intervertebral disc degeneration ([5]; both, human, in vivo, 52 weeks): 0 n (%)
AE leading to discontinuation of study drug: Mitral valve incompetence ([5]; both, human, in vivo, 52 weeks): 0 n (%)
AE leading to discontinuation of study drug: Osteoarthritis ([5]; both, human, in vivo, 52 weeks): 0 n (%)
AE leading to discontinuation of study drug: Pulmonary embolism ([5]; both, human, in vivo, 52 weeks): 0 n (%)
AE leading to discontinuation of study drug: Sinus tachycardia ([5]; both, human, in vivo, 52 weeks): 0 n (%)
AE leading to discontinuation of study drug: Tricuspid valve incompetence ([5]; both, human, in vivo, 52 weeks): 0 n (%)
AE: Anaemia ([5]; both, human, in vivo, 52 weeks): 7 (2.6) n (%)
AE: Atrial fibrillation ([5]; both, human, in vivo, 52 weeks): 0 n (%)
AE: Back pain ([5]; both, human, in vivo, 52 weeks): 6 (2.2) n (%)
AE: Blood pressure increased ([5]; both, human, in vivo, 52 weeks): 2 (0.7) n (%)
AE: Bronchitis ([5]; both, human, in vivo, 52 weeks): 8 (2.9) n (%)
AE: Constipation ([5]; both, human, in vivo, 52 weeks): 10 (3.7) n (%)
AE: Diarrhea ([5]; both, human, in vivo, 52 weeks): 13 (4.8) n (%)
AE: Dizziness ([5]; both, human, in vivo, 52 weeks): 4 (1.5) n (%)
AE: Dry mouth ([5]; both, human, in vivo, 52 weeks): 5 (1.8) n (%)
AE: Fatigue ([5]; both, human, in vivo, 52 weeks): 3 (1.1) n (%)
AE: Headache ([5]; both, human, in vivo, 52 weeks): 15 (5.5) n (%)
AE: Hyperglycemia ([5]; both, human, in vivo, 52 weeks): 7 (2.6) n (%)
AE: Hypertension ([5]; both, human, in vivo, 52 weeks): 24 (8.8) n (%)
AE: Hypotension ([5]; both, human, in vivo, 52 weeks): 0 n (%)
AE: Musculoskeletal pain ([5]; both, human, in vivo, 52 weeks): 6 (2.2) n (%)
AE: Nasopharyngitis ([5]; both, human, in vivo, 52 weeks): 13 (4.8) n (%)
AE: Nausea ([5]; both, human, in vivo, 52 weeks): 10 (3.7) n (%)
AE: Residual urine volume increased ([5]; both, human, in vivo, 52 weeks): 7 (2.6) n (%)
AE: Syncope ([5]; both, human, in vivo, 52 weeks): 0 n (%)
AE: Tachycardia (Sinus Tachycardia) ([5]; both, human, in vivo, 52 weeks): 1 (0.4) n (%)
AE: Upper respiratory tract infection ([5]; both, human, in vivo, 52 weeks): 10 (3.7) n (%)
AE: Urinary retention ([5]; both, human, in vivo, 52 weeks): 3 (1.1) n (%)
AE: Urinary tract infection ([5]; both, human, in vivo, 52 weeks): 18 (6.6) n (%)
Discontinued the study: Adverse Event ([5]; both, human, in vivo, 52 weeks): 3 (1.6) n (%)
inhibition of CYP2D6 (conclusion from tolterodine interaction study) (CYP2D6): does not inhibit CYP2D6
